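Step 1: Grow cells in 96-well plates. Step 2: Expose to compound for 48 hours at 5 concentrations. Step 3: Interpolate endpoints linearly; if unreached, use highest concentration. Definition used: TGI = concentration required for complete inhibition of growth.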
Tests used:
Assay in all cases: NCI tumour cell line growth inhibition, 48 h
UACC-62 melanoma = system: UACC-62 melanoma
RPMI-8226 leukemia = system: RPMI-8226 leukemia
SNB-19 CNS = system: SNB-19 CNS
HL-60(TB) leukemia = system: HL-60(TB) leukemia
M19-MEL melanoma = system: M19-MEL melanoma
EKVX NSCLC = system: EKVX NSCLC
NCI-H226 lung = system: NCI-H226 lung
NCI-H23 lung = system: NCI-H23 lung
P388/ADR leukemia = system: P388/ADR leukemia
IGROV1 ovarian = system: IGROV1 ovarian
SK-OV-3 ovarian = system: SK-OV-3 ovarian
COLO 205 colon = system: COLO 205 colon
UACC-257 melanoma = system: UACC-257 melanoma
DMS 273 small cell lung = system: DMS 273 small cell lung
SW-620 colon = system: SW-620 colon
SK-MEL-28 melanoma = system: SK-MEL-28 melanoma
MCF7 breast = system: MCF7 breast
XF 498 CNS = system: XF 498 CNS
NCI/ADR-RES ovarian = system: NCI/ADR-RES ovarian
SN12C renal = system: SN12C renal
HT29 colon = system: HT29 colon
KM20L2 colon = system: KM20L2 colon
SF-268 CNS = system: SF-268 CNS
NCI-H460 lung = system: NCI-H460 lung
U251 CNS = system: U251 CNS
HOP-62 NSCLC = system: HOP-62 NSCLC
OVCAR-8 ovarian = system: OVCAR-8 ovarian
LOX IMVI melanoma = system: LOX IMVI melanoma
HCT-15 colon = system: HCT-15 colon
SF-295 CNS = system: SF-295 CNS
OVCAR-5 ovarian = system: OVCAR-5 ovarian
SNB-78 CNS = system: SNB-78 CNS
SNB-75 CNS = system: SNB-75 CNS
DMS 114 small cell lung = system: DMS 114 small cell lung
A549 NSCLC = system: A549 NSCLC
SN12K1 renal = system: SN12K1 renal
KM12 colon = system: KM12 colon
MOLT-4 leukemia = system: MOLT-4 leukemia
RXF 393 renal = system: RXF 393 renal
SK-MEL-2 melanoma = system: SK-MEL-2 melanoma
NCI-H522 lung = system: NCI-H522 lung
SK-MEL-5 melanoma = system: SK-MEL-5 melanoma
OVCAR-4 ovarian = system: OVCAR-4 ovarian
A498 renal = system: A498 renal
CAKI-1 renal = system: CAKI-1 renal
HOP-92 NSCLC = system: HOP-92 NSCLC
OVCAR-3 ovarian = system: OVCAR-3 ovarian
DLD-1 colon = system: DLD-1 colon
CCRF-CEM leukemia = system: CCRF-CEM leukemia
SF-539 CNS = system: SF-539 CNS
UO-31 renal = system: UO-31 renal
P388 leukemia = system: P388 leukemia
K-562 leukemia = system: K-562 leukemia
HOP-18 NSCLC = system: HOP-18 NSCLC
HCT-116 colon = system: HCT-116 colon
TK-10 renal = system: TK-10 renal
RXF-631 renal = system: RXF-631 renal
786-0 renal = system: 786-0 renal
SR leukemia = system: SR leukemia
ACHN renal = system: ACHN renal
LXFL 529 NSCLC = system: LXFL 529 NSCLC

Oc1c(Br)cc2c(c1Br)-c1c(c(O)c3c4c1=NCCC=4C=N3)NCC2
TGI (UACC-62 melanoma): 11.4 µM
TGI (RPMI-8226 leukemia): 29.8 µM
TGI (SNB-19 CNS): 35.7 µM
TGI (HL-60(TB) leukemia): 16.9 µM
TGI (M19-MEL melanoma): 8.82 µM
TGI (EKVX NSCLC): 46.1 µM
TGI (NCI-H226 lung): 32.8 µM
TGI (NCI-H23 lung): 30.3 µM
TGI (P388/ADR leukemia): 43.2 µM
TGI (IGROV1 ovarian): 27.4 µM
TGI (SK-OV-3 ovarian): 54.8 µM
TGI (COLO 205 colon): 11.7 µM
TGI (UACC-257 melanoma): 20 µM
TGI (DMS 273 small cell lung): 27.7 µM
TGI (SW-620 colon): 50.1 µM
TGI (SK-MEL-28 melanoma): 32.5 µM
TGI (MCF7 breast): 22.2 µM
TGI (XF 498 CNS): 27.2 µM
TGI (NCI/ADR-RES ovarian): 34.3 µM
TGI (SN12C renal): 29.3 µM
TGI (HT29 colon): 20.8 µM
TGI (KM20L2 colon): 18.7 µM
TGI (SF-268 CNS): 23.2 µM
TGI (NCI-H460 lung): 27.9 µM
TGI (U251 CNS): 24.5 µM
TGI (HOP-62 NSCLC): > 66.3 µM
TGI (OVCAR-8 ovarian): 28.5 µM
TGI (LOX IMVI melanoma): 20.9 µM
TGI (HCT-15 colon): 30.6 µM
TGI (SF-295 CNS): 19.5 µM
TGI (OVCAR-5 ovarian): 40.2 µM
TGI (SNB-78 CNS): 13.4 µM
TGI (SNB-75 CNS): 34.5 µM
TGI (DMS 114 small cell lung): 9.76 µM
TGI (A549 NSCLC): > 80.8 µM
TGI (SN12K1 renal): 17.4 µM
TGI (KM12 colon): 27.2 µM
TGI (MOLT-4 leukemia): 9.79 µM
TGI (RXF 393 renal): 28.7 µM
TGI (SK-MEL-2 melanoma): 26.4 µM
TGI (NCI-H522 lung): 5.52 µM
TGI (SK-MEL-5 melanoma): 23.2 µM
TGI (OVCAR-4 ovarian): 23.5 µM
TGI (A498 renal): 45.7 µM
TGI (CAKI-1 renal): 42.2 µM
TGI (HOP-92 NSCLC): 35.4 µM
TGI (OVCAR-3 ovarian): 8.47 µM
TGI (DLD-1 colon): 25 µM
TGI (CCRF-CEM leukemia): 9.49 µM
TGI (SF-539 CNS): 26.5 µM
TGI (UO-31 renal): 39.8 µM
TGI (P388 leukemia): > 22.2 µM
TGI (K-562 leukemia): 40.9 µM
TGI (HOP-18 NSCLC): 35.6 µM
TGI (HCT-116 colon): 28.8 µM

CN1NC(c2ccc(Cl)cc2)=C(C#N)C(=O)CC1c1ccccc1 (stereo not given)
TGI (RPMI-8226 leukemia): > 100 µM
TGI (SNB-19 CNS): > 100 µM
TGI (HL-60(TB) leukemia): > 100 µM
TGI (NCI-H23 lung): > 100 µM
TGI (SK-OV-3 ovarian): > 100 µM
TGI (COLO 205 colon): > 100 µM
TGI (UACC-257 melanoma): > 100 µM
TGI (DMS 273 small cell lung): > 100 µM
TGI (SW-620 colon): > 100 µM
TGI (SK-MEL-28 melanoma): > 100 µM
TGI (TK-10 renal): > 100 µM
TGI (HT29 colon): > 100 µM
TGI (KM20L2 colon): > 100 µM
TGI (SF-268 CNS): > 100 µM
TGI (NCI-H460 lung): > 100 µM
TGI (U251 CNS): > 100 µM
TGI (LOX IMVI melanoma): > 100 µM
TGI (HCT-15 colon): > 100 µM
TGI (SF-295 CNS): > 100 µM
TGI (OVCAR-5 ovarian): > 100 µM
TGI (RXF-631 renal): > 100 µM
TGI (SNB-75 CNS): > 100 µM
TGI (DMS 114 small cell lung): > 100 µM
TGI (A549 NSCLC): > 100 µM
TGI (KM12 colon): > 100 µM
TGI (RXF 393 renal): > 100 µM
TGI (SK-MEL-2 melanoma): > 100 µM
TGI (NCI-H522 lung): > 100 µM
TGI (786-0 renal): > 100 µM
TGI (SK-MEL-5 melanoma): > 100 µM
TGI (SR leukemia): > 100 µM
TGI (OVCAR-4 ovarian): > 100 µM
TGI (A498 renal): > 100 µM
TGI (CAKI-1 renal): > 100 µM
TGI (HOP-92 NSCLC): > 100 µM
TGI (DLD-1 colon): > 100 µM
TGI (ACHN renal): > 100 µM
TGI (LXFL 529 NSCLC): > 100 µM
TGI (HOP-18 NSCLC): > 100 µM
TGI (HCT-116 colon): > 100 µM

Source: PubChem BioAssay (NCI)
